# Reference: ChEMBL document CHEMBL1134422, “Synthesis and bioactivities of novel 5,6-bis(4-methoxyphenyl)-2H-pyridazin-3-one derivatives: inhibitors of interleukin-1 beta (IL-1beta) production” (Bioorg Med Chem Lett, 2001)
# System: HL-60
# Assay: Inhibitory concentration against interleukin-1 beta production in HL-60 cells stimulated with lipopolysaccharide (LPS).
# Type: functional, cell-based
# Details: Homo sapiens
row,Compound,IC50
1,COc1ccc(-c2cc(=O)n(Cc3c(Cl)cccc3Cl)nc2-c2ccc(OC)cc2)cc1,3160 nM
2,COc1ccc(-c2cc(=O)n(C3CC3)nc2-c2ccc(OC)cc2)cc1,7980 nM
3,COc1ccc(-c2cc(=O)n(Cc3cccnc3)nc2-c2ccc(OC)cc2)cc1,430 nM
4,COc1ccc(-c2cc(=O)n(CC3CC3)nc2-c2ccc(OC)cc2)cc1,1800 nM
5,C=CCn1nc(-c2ccc(OC)cc2)c(-c2ccc(OC)cc2)cc1=O,> 100000 nM
6,COc1ccc(-c2cc(=O)n(Cc3ccccc3)nc2-c2ccc(OC)cc2)cc1,260 nM
7,COc1ccc(-c2cc(=O)n(C(C)C)nc2-c2ccc(OC)cc2)cc1,1320 nM
8,COc1ccc(-c2cc(=O)n(Cc3c(Cl)cc(Cl)cc3Cl)nc2-c2ccc(OC)cc2)cc1,9400 nM
9,COc1ccc(-c2cc(=O)n(C/C=C/c3ccc(Cl)cc3)nc2-c2ccc(OC)cc2)cc1,100 nM
10,COc1ccc(-c2cc(=O)n(Cc3ccc(Cl)c(Cl)c3)nc2-c2ccc(OC)cc2)cc1,210 nM
11,COc1ccc(-c2cc(=O)n(C/C=C/c3ccc(F)cc3)nc2-c2ccc(OC)cc2)cc1,170 nM
12,COc1ccc(-c2cc(=O)n(Cc3ccc(F)cc3)nc2-c2ccc(OC)cc2)cc1,150 nM
13,COc1ccc(-c2cc(=O)n(C3CCCC3)nc2-c2ccc(OC)cc2)cc1,510 nM
14,COc1ccc(-c2cc(=O)n(Cc3ccc(F)c(F)c3)nc2-c2ccc(OC)cc2)cc1,540 nM
15,CCn1nc(-c2ccc(OC)cc2)c(-c2ccc(OC)cc2)cc1=O,610 nM

# The next lines start with the values.
row,IC50,Compound
1,620 nM,COc1ccc(-c2cc(=O)n(C/C=C/c3ccccc3)nc2-c2ccc(OC)cc2)cc1
2,110 nM,COc1ccc(-c2cc(=O)n(CC3CCCC3)nc2-c2ccc(OC)cc2)cc1
3,100 nM,COc1ccc(-c2cc(=O)n(C/C=C/c3ccc(F)cc3F)nc2-c2ccc(OC)cc2)cc1
4,520 nM,COc1ccc(-c2cc(=O)n(Cc3ccncc3)nc2-c2ccc(OC)cc2)cc1
5,530 nM,COc1ccc(-c2cc(=O)n(Cc3ccc(Cl)cc3)nc2-c2ccc(OC)cc2)cc1
6,270 nM,COc1ccc(-c2cc(=O)n(C/C=C/c3ccc(Cl)cc3Cl)nc2-c2ccc(OC)cc2)cc1
7,31600 nM,COc1ccc(-c2cc(O)nnc2-c2ccc(OC)cc2)cc1
8,180 nM,COc1ccc(-c2cc(=O)n(Cc3ccc(F)cc3F)nc2-c2ccc(OC)cc2)cc1
9,> 100000 nM,COc1ccc(-c2cc(=O)n(CC(C)C)nc2-c2ccc(OC)cc2)cc1
10,1100 nM,COc1ccc(-c2cc(=O)n(Cc3ccc(Cl)cc3Cl)nc2-c2ccc(OC)cc2)cc1
11,1480 nM,COc1ccc(-c2cc(=O)n(Cc3ccccn3)nc2-c2ccc(OC)cc2)cc1
12,1130 nM,COc1ccc(-c2cc(=O)n(C)nc2-c2ccc(OC)cc2)cc1

# System: not listed separately
# Assay: Pharmacokinetic property (Tmax) in rat
# Type: ADME, organism-based
# Details: in vivo
row,Tmax,Compound
1,7 h,COc1ccc(-c2cc(=O)n(C/C=C/c3ccc(Cl)cc3)nc2-c2ccc(OC)cc2)cc1

# System: not listed separately
# Assay: Pharmacokinetic property (Cmax) in rat
# Type: ADME, organism-based
# Details: in vivo
row,Cmax,Compound
1,316 ng/mL,COc1ccc(-c2cc(=O)n(C/C=C/c3ccc(Cl)cc3)nc2-c2ccc(OC)cc2)cc1

# Organism: Rattus norvegicus
# Assay: Pharmacokinetic property (AUC) in rat
# Type: ADME, organism-based
# Details: in vivo
row,AUC,Compound
1,3900 ng·h/mL,COc1ccc(-c2cc(=O)n(C/C=C/c3ccc(Cl)cc3)nc2-c2ccc(OC)cc2)cc1

# System: not listed separately
# Assay: Pharmacokinetic property (t1/2) in rat
# Type: ADME, organism-based
# Details: in vivo
row,half-life,Compound
1,4.9 h,COc1ccc(-c2cc(=O)n(C/C=C/c3ccc(Cl)cc3)nc2-c2ccc(OC)cc2)cc1
